This is an account of results in patent US20220373538A1, “COMPOSITION FOR DETERMINATION OF CELL-MEDIATED IMMUNE RESPONSIVENESS” (Lophius Biosciences GmbH, priority 2015, published 2022).

Assay type in all cases: cell-based, human
Assay [1] concerns PBMC. Description: IFN-γ ELISpot assay, one-step detection. Conditions: for IFN-γ secreting cells after stimulation with the single stimulant (in words) / number of IFN-γ secreting cells detected: single stimulant alone; for IFN-γ secreting cells after stimulation with the single stimulant (in words): collective of 10 donors, LPS 1 EU/ml; for number of IFN-γ secreting cells detected: donor d270.

The subject of assay [2] is PBMC. Nature of the assay: IFN-γ ELISpot assay, two-step detection. As to conditions: for IL-12 concentration at which the number of IFN-γ secreting cells reached a maximum or plateau, IL-12 combined with the poly(I:C) variant: 10 μg/ml poly(I:C)-LMW, 1 μg/ml poly(I:C)-LMW/LyoVec, 1 μg/ml poly(I:C) (Enzo).
For assay [3], the system named is PBMC. Description: IFN-γ ELISA, temporal course of IFN-γ release. Conditions: for start of IFN-γ secretion after stimulation: working concentrations, 0 to 24 hours. As to the method:
The detection of secreted IFN-γ was performed with the test kit “BD OptEIA Human IFN-γ ELISA Set” from Becton, Dickinson and Company according to the recommended assay performance in the technical data sheet.
To ensure that the activation of the IFN-γ production by the tested stimulants occurred in the typical stimulation period of 19 hours, the temporal course of the IFN-γ secretion induced by the stimulants was determined over a period of 24 hours. For this purpose, at each time point PBMC adjusted to 2×10^5 lymphocytes of different donors have been stimulated by the determined working concentrations of the stimulants poly(I:C) in combination with IL-12. KRN7000 and CEFTv for 0 to 24 hours.
In specifically stimulated cells the determination of the IFN-γ production was made to 11 time points in an interval of 2 or 4 hours. In unstimulated cells (negative control) three measurements in interval of 6 and 12 hours were made. Upon completion of each stimulation period the cells of the stimulation preparation were centrifuged and the supernatant stored at −20° C. After all stimulations were finished the IFN-γ concentration of the supernatants has been determined by IFN-γ ELISA as described in example 3.
(An ELISA detects its analyte on a solid surface through an enzyme-linked reagent.)

The test system of assay [4] is PBMC. Description: IFN-γ ELISpot assay (T-Track basic IFN-γ), PBMC of rheumatism patients. Conditions: patient P1, giant cell arthritis, 35 mg prednisolone equivalent daily; days 6 and 9.
Setting [5] is: donor d022, a-Gal-Cer variants titrated, 19 h.

Like-named read-outs stand apart in the source and are kept apart here.

On to `NC(N)=O` [urea], for which, in the assay on PBMC [1], the “IFN-γ secreting cells after stimulation with the single stimulant (in words)” value is reported as “did not result in a IFN-γ secretion”. The “influence of urea on IFN-γ secreting cells induced by 1 μg p.p./ml CEFTv (in words)” value was “only improved by a 24 hours pre-incubation of CEFTv or directly added urea” with PBMC [2] (donor d034); “deterioration of the stimulation at 100 mM and an improvement at 150 mM” with PBMC [2] (donor d204, CEFTv pre-incubated for 48 hours in urea buffer); “no improvement” in the assay on PBMC [2] (donor d204, without pre-incubation). Further, the “urea concentration up to which the IFN-γ secreting cells increased” value with PBMC [2] (donor d204, CEFTv pre-incubated in urea buffer for 24 hours) was found to be 12.5 mM.
As to `CCCCCCCCCCCCCCCCCCCCCCCCCC(=O)N[C@@H](CO[C@H]1O[C@H](CO)[C@H](O)[C@H](O)[C@H]1O)[C@H](O)[C@H](O)CCCCCCCCCCCCCC` [KRN7000 (from Enzo)], in the assay on PBMC [1] (setting [5]), the “concentration at which the number of IFN-γ secreting cells reached a maximum, plateau or saturation region” value (“concentration … plateau or saturation region” below) is 3 µg/mL. In the assay on PBMC [2] (donor d022, a-Gal-Cer variants), the “IFN-γ secreting cells after stimulation (in words)” value is “highest number”.
As to “polyinosinic:polycytidylic acid [poly(I:C)]”, the “number of IFN-γ secreting cells detected” value with PBMC [1] is given as “over 270 IFN-γ secreting cells”.
For the compound “polyinosinic:polycytidylic acid [poly(I:C) (from Enzo)]”, in the assay on PBMC [1], the “change of the number of IFN-γ secreting cells by IL-12 in combination with the poly(I:C) variant (in words)” value is listed as “very low increase”. The “concentration … plateau or saturation region” value in the assay on PBMC [1] is recorded as “around 0.3 μg/ml”. Besides, the “IFN-γ secreting cells after stimulation (in words)” value with PBMC [1] (donor d042, […]) was “activation of IFN-γ secreting PBMC”; with PBMC [2] (donor d098, poly(I:C) variants), “without reaching a plateau”. Moreover, in the assay on PBMC [1] (donor d098, at highest concentration tested of 10 μg/ml), the “number of IFN-γ secreting cells exceeding the plateau of poly(I:C)-LMW” value was “more than 100%”. In addition, in the assay on PBMC [1] (summary of one-step and two-step detection), the “ranking of activation of IFN-γ secreting cells in culture of human PBMC” value is given as “highest activation of IFN-γ secreting cells”. For the same compound, the “IL-12 concentration at which the number of IFN-γ secreting cells reached a maximum or plateau, IL-12 combined with the poly(I:C) variant” value with PBMC [2] (donor d022) turned out to be 0.01 µg/mL; with PBMC [2] (donor d098), 0.001 µg/mL; in the assay on PBMC [2] (donor d248), 0.01 µg/mL.
On to `CCCCCCCCCCCCCCCCCCCCCCCCCC(=O)N[C@@H](CO[C@H]1O[C@H](CO)[C@H](O)[C@H](O)[C@H]1O)[C@H](O)[C@H](O)CCCCCCCCCCCCCC` [KRN7000 (from Funakoshi)], for which the “concentration … plateau or saturation region” value with PBMC [1] (setting [5]) stood at 1 µg/mL. Besides, the “more IFN-γ secreting cells activated compared with KRN7000 (from Enzo)” value in the assay on PBMC [1] (donor d248, saturation region) worked out at 100%. In addition, the “IFN-γ secreting cells after stimulation (in words)” value with PBMC [2] (donor d242, a-Gal-Cer variants) is “highest number of IFN-γ secreting cells”. The “time at which IFN-γ secretion reached a plateau or maximum” value with PBMC [3] (donor d022) worked out at 12 h; in the assay with PBMC [3] (donor d248), 18 h. Further, the results for the “start of IFN-γ secretion after stimulation” value with PBMC [3] (donor d022) and in the assay with PBMC [3] (donor d248) were 8 h and 2 h, respectively. Further, the “IFN-γ release in PBMC, comparison of stimulants (in words)” value in the assay with PBMC [3] (summary of donors) is given as “weakest IFN-γ activating properties”.
Take lipopolysaccharide [LPS]: in the assay with PBMC [1], the “effect of combination of LPS with CEFTv (in words)” value is given as “synergistic induction of IFN-γ secreting NK cells”. Moreover, in the assay on PBMC [1] (all three tested donors d204, d237, d254), the “stimulation ability of CEFTv on simultaneous administration of LPS (in words)” value is reported as “did not result in an improvement”. In addition, the “IFN-γ secreting cells after stimulation (in words)” value in the assay with PBMC [1] (donor d204 (CMV-/EBV-seropositive), CEFTv / LPS matrix) is recorded as “high numbers of IFN-γ secreting cells”; in the assay with PBMC [1] (donor d237 (CMV-seronegative/EBV-seropositive), CEFTv / LPS matrix) it was “high numbers of IFN-γ secreting cells”; in the assay on PBMC [1] (donor d254 (CMV-/EBV-seropositive), CEFTv / LPS matrix) it was “low numbers of IFN-γ secreting cells”. Also, the “LPS concentration at which stimulated PBMC reached a maximum” value in the assay with PBMC [1] (donor d219, LPS in combination with CEFTv) is recorded as 1 EU/ml. Further, the “LPS concentration as from which IFN-γ secreting cells increased” value in the assay with PBMC [1] (donor d237, LPS in combination with CEFTv) was found to be 3.2 EU/ml; in the assay on PBMC [1] (donor d241, LPS in combination with CEFTv), 3.2 EU/ml. Further, the “LPS concentration as from which LPS alone induced a low secretion of IFN-γ” value in the assay on PBMC [1] (donor d241) was 10 EU/ml; with PBMC [1] (donor d254), 100 EU/ml. Besides, in the assay with PBMC [1] (donors d204, d237, d254), the “threshold for LPS at which even no IFN-γ secreting cells have been detected” value worked out at 1 EU/ml. Also, the “IFN-γ secreting cells after stimulation with the single stimulant (in words)” value in the assay with PBMC [1] was “barely detected”. The “number of IFN-γ secreting cells detected” value in the assay on PBMC [1] was “high number of IFN-γ secreting cells”. The “own stimulating effect of LPS (in words)” value in the assay with PBMC [2] (LPS 1 EU/ml) is listed as “no own detectable stimulating effect”. In the assay on PBMC [2] (summary of four donors), the “stimulation ability of CEFTv on addition of LPS (in words)” value was “could not have been improved”.
Consider `C[C@]12C=CC(=O)C=C1CC[C@@H]1[C@@H]2[C@@H](O)C[C@@]2(C)[C@H]1CC[C@]2(O)C(=O)CO` [prednisolone], for which the “course of cocktail-reactive IFN-γ producing cells under treatment (in words)” value in the assay on PBMC [4] is given as “continuous drop in the numbers of cocktail-reactive IFN-g-producing cells”.
